What was measured:
[1] = test system: CD1 female mouse brain lipidome; experiment: Brain-region lipid levels (HPLC/MS/MS lipidomics) 2 h after single i.p. 3 mg/kg CP 55,940 vs vehicle; assay type: in vivo; set-up: unit: moles per gram
Method: The Bloomington Institutional Animal Care and Use Committee of Indiana University reviewed and approved the animal procedures. Female mice from the CD1 strain were utilized to match our study examining THC’s effects on the brain lipidome ([Leishman et al., 2018]). Mice were given a single i.p. injection of either 3 mg/kg CP or 1:1:18 cremophor:ethanol:saline vehicle (please refer to the section “3 mg/kg CP Is Relevant for Synthetic Cannabinoid Abuse and Has Stronger Effects on the Female Mouse Brain Lipidome During Adolescence” for a justification of dose and use of female mice). Three different age groups were given injections: PND 35 and PND 50 adolescents, and adult mice (PND 113). At least eight mice in each age group received CP and at least eight received vehicle. Matching the THC study time course ([Leishman et al., 2018]), mice were sacrificed via rapid decapitation 2 h after injection. Brains were immediately removed and flash-frozen in liquid nitrogen, and then stored at -80°C until dissections were performed. Brains were dissected on an ice-cold dissection plate into the following regions: STR, HIPP, CER, THAL, CTX, HYP, MID, and STEM. These abbreviations for these brain areas will be used exclusively when discussing the results generated by these specific dissections. Each dissected area was immediately placed in liquid nitrogen and then stored at -80°C until used for lipid extraction.
Tissue extracts were performed as previously described ([Bradshaw et al., 2006]; [Stuart et al., 2013]; [Raboune et al., 2014]; [Leishman et al., 2016a],[b], [2017], [2018]). First, samples were shock frozen in liquid nitrogen, weighed, and transferred to a centrifuge tube. The mass of the largest sample was multiplied by 50 to determine how many milliliters of HPLC-grade methanol (Fisher, Fair Lawn, NJ, United States) to add. Then, samples were spiked with 500 pmol deuterium-labeled NAGly (d8NAGly; Cayman Chemical, Ann Arbor, MI, United States). Samples were placed on ice in darkness for 2 h then individually homogenized and centrifuged at 19,000 × g for 20 min at 20°C. […]
As previously described ([Bradshaw et al., 2006]; [Tan et al., 2006]; [Smoum et al., 2010]; [Stuart et al., 2013]; [Tortoriello et al., 2013]; [Raboune et al., 2014]; [Leishman et al., 2016a],[b], [2017], [2018]), samples were analyzed using an Applied Biosystems API 3000 triple quadrupole mass spectrometer with electrospray ionization (Foster City, CA, United States). […]
This screening library will be referred to as the lipidome when discussing data from this study. HPLC/MS/MS data were analyzed using Analyst software (Applied Biosystems) ([Bradshaw et al., 2006]; [Tan et al., 2006]; [Stuart et al., 2013]; [Tortoriello et al., 2013]; [Raboune et al., 2014]; [Leishman et al., 2016a],[b], [2017], [2018]). […]

[2] = set-up: method as in earlier work; settings: ref Ferrari et al., 2000; Lopez et al., 2009; Gorzalka et al., 2010; cited from earlier work

In the case of CCCCCCC(C)(C)c1ccc([C@@H]2C[C@H](O)CC[C@H]2CCCO)c(O)c1 [CP 55,940], the “PGF2α level, Mean” value ([1]; cerebellum, PND 50 female mice, 3 mg/kg CP 55,940) is reported as 6.11E-11, the “PGF2α level, Mean” value ([1]; hypothalamus, PND 35 adolescent female mice, 3 mg/kg) is reported as 3.47E-10 and the “PGF2α level, Mean” value ([1]; midbrain, PND 35 WT adolescent female mice, 3 mg/kg) is reported as 5.59E-10. For the same compound, the “PGF2α level, Mean” value ([1]; thalamus, PND 50 female mice, 3 mg/kg CP 55,940) was 1.3E-10 and the “doses attenuating social motivation” value [2] was “over 0.4 mg/kg”.

Source: publication PMC6277767, “Broad and Region-Specific Impacts of the Synthetic Cannabinoid CP 55,940 in Adolescent and Adult Female Mouse Brains” (Frontiers in Molecular Neuroscience, 2018)
